Reference: ChEMBL document CHEMBL3098096, “Design, synthesis and antibacterial activities of 5-(pyrazin-2-yl)-4H-1,2,4-triazole-3-thiol derivatives containing Schiff base formation as FabH inhibitory” (Bioorg Med Chem Lett, 2014)
In brackets after ≈: the same amount, converted by molar mass.

Columns and labels:
[1] = tested on: Bacillus amyloliquefaciens; assay: Antimicrobial activity against Bacillus amyloliquefaciens 23842 assessed as […] growth inhibition after 24 hrs by two-fold serial broth dilution method; type: functional; conditions: Bacillus amyloliquefaciens, 23842, 24 h
[2] = tested on: Bacillus subtilis; assay: Antimicrobial activity against Bacillus subtilis ATCC 530 assessed as […] growth inhibition after 24 hrs by two-fold serial broth dilution method; type: functional; conditions: ATCC 530, 24 h
[3] = tested on: Staphylococcus aureus; assay: Antimicrobial activity against Staphylococcus aureus ATCC 25923 assessed as […] growth inhibition after 24 hrs by two-fold serial broth dilution method; type: functional; conditions: ATCC 25923, 24 h
[4] = tested on: Pseudomonas aeruginosa; assay: Antimicrobial activity against Pseudomonas aeruginosa ATCC 27853 assessed as […] growth inhibition after 24 hrs by two-fold serial broth dilution method; type: functional; conditions: ATCC 27853, 24 h
[5] = tested on: Escherichia coli; assay: Antimicrobial activity against Escherichia coli ATCC 25922 assessed as […] growth inhibition after 24 hrs by two-fold serial broth dilution method; type: functional; conditions: ATCC 25922, 24 h
[6] = tested on: NIH3T3; assay: Cytotoxicity against mouse NIH/3T3 cells after 24 hrs by MTT assay; type: cell-based; conditions: NIH3T3, 24 h
[7] = Toxicity in human erythrocytes assessed as hemolytic activity by spectrophotometric analysis; type: cell-based; conditions: erythrocyte
[8] = biological target: T1, 3-oxoacyl-[acyl-carrier-protein] synthase 3 (Escherichia coli, UniProt C3TDZ2); assay: Inhibition of Escherichia coli FabH overexpressed in Escherichia coli DH10B cells assessed as incorporation of [3H] in the product after 25 mins by liquid scintillation counting analysis
T1 sequence (C3TDZ2 whole entry): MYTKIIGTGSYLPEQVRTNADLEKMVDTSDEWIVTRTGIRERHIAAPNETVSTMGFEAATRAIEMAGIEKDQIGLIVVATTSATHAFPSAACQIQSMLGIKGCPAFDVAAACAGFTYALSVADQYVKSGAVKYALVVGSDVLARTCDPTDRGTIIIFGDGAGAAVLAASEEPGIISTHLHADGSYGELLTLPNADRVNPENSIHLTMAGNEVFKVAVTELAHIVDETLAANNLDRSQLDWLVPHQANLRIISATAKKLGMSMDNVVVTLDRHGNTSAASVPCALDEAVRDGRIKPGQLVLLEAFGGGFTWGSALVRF

MIC [1] [µg/mL] | MIC [2] [µg/mL] | MIC [3] [µg/mL] | MIC [4] [µg/mL] | MIC [5] [µg/mL] | IC50 [8] [µM] | SMILES | IC50 [6] [µM] | LC30 [7] [µg/mL]
50 (≈ 153 µM) | 25 (≈ 76.4 µM) | > 50 | 25 (≈ 76.4 µM) | 25 (≈ 76.4 µM) |  | O=[N+]([O-])c1ccc(/C=N/n2c(S)nnc2-c2cnccn2)cc1 |  | 
50 (≈ 166 µM) | 50 (≈ 166 µM) | 50 (≈ 166 µM) | > 50 | 25 (≈ 83.2 µM) |  | Fc1ccc(/C=N/n2c(S)nnc2-c2cnccn2)cc1 |  | 
25 (≈ 83.8 µM) | 25 (≈ 83.8 µM) | 50 (≈ 168 µM) | 25 (≈ 83.8 µM) | 12.5 (≈ 41.9 µM) | 29.3 | Oc1ccc(/C=N/n2c(S)nnc2-c2cnccn2)cc1 | 175 | > 10000
50 (≈ 166 µM) | 50 (≈ 166 µM) | 50 (≈ 166 µM) | 50 (≈ 166 µM) | 25 (≈ 83.2 µM) |  | Fc1ccccc1/C=N/n1c(S)nnc1-c1cnccn1 |  | 
25 (≈ 67.1 µM) | 6.25 (≈ 16.8 µM) | 12.5 (≈ 33.6 µM) | 12.5 (≈ 33.6 µM) | 6.25 (≈ 16.8 µM) | 15.1 | COc1cc(/C=N/n2c(S)nnc2-c2cnccn2)cc(OC)c1OC | 169 | > 10000
1.56 (≈ 3.23 µM) | 3.13 (≈ 6.47 µM) | 1.56 (≈ 3.23 µM) | 1.56 (≈ 3.23 µM) | 3.13 (≈ 6.47 µM) | 6.3 | NC[C@H]1O[C@H](O[C@H]2[C@H](O)[C@@H](O[C@H]3O[C@H](CO)[C@@H](O)[C@H](N)[C@H]3O)[C@H](N)C[C@@H]2N)[C@H](N)[C@@H](O)[C@@H]1O [BEKANAMYCIN] | 140 | > 10000
25 (≈ 80 µM) | 25 (≈ 80 µM) | 25 (≈ 80 µM) | 25 (≈ 80 µM) | 12.5 (≈ 40 µM) | 22.9 | COc1ccccc1/C=N/n1c(S)nnc1-c1cnccn1 | 173 | > 10000
50 (≈ 162 µM) | 25 (≈ 81.1 µM) | 50 (≈ 162 µM) | 25 (≈ 81.1 µM) | 12.5 (≈ 40.5 µM) |  | Sc1nnc(-c2cnccn2)n1/N=C/C=C/c1ccccc1 |  | 
50 (≈ 168 µM) | 50 (≈ 168 µM) | > 50 | 25 (≈ 83.8 µM) | 25 (≈ 83.8 µM) | 48.3 | Oc1cccc(/C=N/n2c(S)nnc2-c2cnccn2)c1 | 151 | > 10000
50 (≈ 158 µM) | > 50 | 50 (≈ 158 µM) | > 50 | 50 (≈ 158 µM) | > 100 | Sc1nnc(-c2cnccn2)n1/N=C/c1ccc(Cl)cc1 | 218 | > 10000
25 (≈ 73 µM) | 25 (≈ 73 µM) | 12.5 (≈ 36.5 µM) | 50 (≈ 146 µM) | 25 (≈ 73 µM) | 45.5 | COc1ccc(/C=N/n2c(S)nnc2-c2cnccn2)cc1OC | 163 | > 10000
50 (≈ 177 µM) | 25 (≈ 88.5 µM) | 50 (≈ 177 µM) | 25 (≈ 88.5 µM) | 25 (≈ 88.5 µM) |  | Sc1nnc(-c2cnccn2)n1/N=C/c1ccccc1 |  | 
6.25 (≈ 16.8 µM) | 3.13 (≈ 8.4 µM) | 25 (≈ 67.1 µM) | 12.5 (≈ 33.6 µM) | 6.25 (≈ 16.8 µM) | 12.8 | COc1cc(OC)c(OC)cc1/C=N/n1c(S)nnc1-c1cnccn1 | 142 | > 10000
25 (≈ 80 µM) | 50 (≈ 160 µM) | 50 (≈ 160 µM) | 25 (≈ 80 µM) | 12.5 (≈ 40 µM) |  | COc1ccc(/C=N/n2c(S)nnc2-c2cnccn2)cc1 |  | 
50 (≈ 166 µM) | > 50 | 50 (≈ 166 µM) | > 50 | 25 (≈ 83.2 µM) |  | Fc1cccc(/C=N/n2c(S)nnc2-c2cnccn2)c1 |  | 
0.78 (≈ 2.61 µM) | 0.78 (≈ 2.61 µM) | 1.56 (≈ 5.23 µM) | 1.56 (≈ 5.23 µM) | 0.39 (≈ 1.31 µM) | 5.2 | Oc1ccccc1/C=N/n1c(S)nnc1-c1cnccn1 | 131 | > 10000
25 (≈ 69.2 µM) | 25 (≈ 69.2 µM) | 50 (≈ 138 µM) | 50 (≈ 138 µM) | 50 (≈ 138 µM) |  | Sc1nnc(-c2cnccn2)n1/N=C/c1ccc(Br)cc1 |  | 
> 50 | > 50 | 50 (≈ 142 µM) | > 50 | 50 (≈ 142 µM) | > 100 | Sc1nnc(-c2cnccn2)n1/N=C/c1ccc(Cl)cc1Cl | 206 | > 10000
25 (≈ 79.5 µM) | 25 (≈ 79.5 µM) | 25 (≈ 79.5 µM) | 12.5 (≈ 39.8 µM) | 12.5 (≈ 39.8 µM) | 24.6 | Oc1ccc(/C=N/n2c(S)nnc2-c2cnccn2)cc1O | 148 | > 10000
50 (≈ 160 µM) | 50 (≈ 160 µM) | > 50 | 50 (≈ 160 µM) | 25 (≈ 80 µM) |  | COc1cccc(/C=N/n2c(S)nnc2-c2cnccn2)c1 |  | 
25 (≈ 84.4 µM) | 25 (≈ 84.4 µM) | 25 (≈ 84.4 µM) | 50 (≈ 169 µM) | 12.5 (≈ 42.2 µM) | 27.1 | Cc1ccc(/C=N/n2c(S)nnc2-c2cnccn2)cc1 | 156 | > 10000
